Measured values as given in patent US7504497B2, “Orally bioavailable compounds and methods for inhibiting platelet aggregation” (Inspire Pharmaceuticals, Inc., priority 2005, dated 2009).
Where two headings read alike, the source gives them in different places.

Tests used:
washed human platelets = experiment: Inhibition of ADP-induced platelet aggregation in washed human platelets; assay type: cell-based; details: for IC50: ADP agonist challenge typically 1-5 μM, average of two experiments or more; for % inhibition of ADP-induced platelet aggregation at fixed concentration: antagonist at 0.3 μM, ADP typically 1-5 μM
Protocol: Isolation of Platelets: Human blood is obtained from informed healthy adult volunteers. Blood is collected into one-sixth volume of acid/citrate/dextrose (ACD) buffer (85 mM sodium citrate, 65 mM citric acid, and 110 mM glucose). Collected blood is placed in a water bath at 37° C. for 30 minutes. Blood is then centrifuged at 275×g for 16 minutes at room temperature and the platelet-rich plasma is removed and centrifuged at 2200×g for 13 minutes at room temperature. The platelet pellet is resuspended in 40 mL of HEPES-buffered Tyrode's solution (137 mM NaCl, 2.7 mM KCl, 1 mM MgCl2, 2 mM CaCl2, 12 mM NaHCO3, 0.36 mM NaH2PO4, 5.5 mM glucose, 5 mM HEPES pH 7.4, 0.35% bovine serum albumin or 0.35% human serum albumin) containing 10 U/mL heparin and 5 μM (final concentration) prostaglandin I2 (PGI2). The platelet suspension is incubated in a 37° C. water bath for 10 minutes and then 5 μM (final conc.) PGI2 is added just before centrifugation at 1900×g for 8 minutes. The resulting pellet is resuspended in 40 mL of HEPES-buffered Tyrode's solution containing 5 μM (final concentration) PGI2 and then is incubated for 10 minutes in a 37° C. water bath. A small aliquot (500 μL) of the platelet suspension is removed for platelet counting. Prior to centrifugation 5 μM (final concentration) PGI2 is added to the suspension and then the suspension is centrifuged at 1900×g for 8 minutes. The pellet is resuspended at a density of 5×10^8 cells/mL in HEPES-buffered Tyrode's solution containing 0.05 U/mL apyrase. Aggregation Studies: ADP-induced platelet aggregation is determined by measuring the transmission of light through a 0.5 ml suspension of stirred (1000 rpm) washed platelets in a lumi-aggregometer at 37° C. (Chrono-Log Corp. Havertown, Pa.). The baseline of the instrument is set using 0.5 ml of Hepes-buffered Tyrode's solution. Prior to aggregation measurements, the platelet suspension is supplemented with 1 mg/ml fibrinogen. Platelet aggregation is initiated by the addition of indicated concentrations of ADP or other agonists, and the light transmission is continuously recorded for at least 8 min. When inhibitors of platelet aggregation are tested, platelets are incubated for 2 min in the presence of indicated concentrations of inhibitor before addition of ADP or other agonists, and the response is recorded for at least 8 min. The potency of agonists and inhibitors of platelet aggregation is calculated from both the rate of aggregation and the maximal extent of aggregation obtained for each determination by fitting the data to a four-parameter logistic equation using the GraphPad software package (GraphPad Corp. San Diego, Calif.).
IC50 values represent the concentration of antagonist necessary to inhibit by 50% the aggregation elicited by a given concentration of ADP.
The agonist challenge (ADP) was typically in the range of 1-5 μM. Data are presented in μM and are from the average of two experiments or more.

[1] = Oral bioavailability (%F) following oral vs intravenous administration in rats; assay type: in vivo, male Sprague-Dawley rats; details: rat; for bioavailability: male, Sprague-Dawley, plasma, po
Protocol: These compounds were administered intravenously and orally to compare the extent of absorption by the oral route to the intravenous route and evaluate their ability to inhibit platelet aggregation in vivo. The following brief protocol describes the experiment methodology.
While anesthetized by an inhaled anesthetic, male Sprague-Dawley rats were surgically cannulated in the jugular vein for blood sample collection in order to assess systemic exposure of the compound after oral or intravenous administration and platelet aggregation. For the oral studies, compounds were administered as suspensions of the free acid or sodium salt forms, or as solutions of the sodium salt forms. Animals were allowed 48 hours to recover prior to dose administration.
A blood samples was taken immediately prior to compound administration. This sample was used to assess the baseline platelet aggregation and potential drug interference in the LC/MS/MS analysis. Compound was administered by either oral gavage or tail vein and blood samples were withdrawn for plasma analysis at up to 12 time points ranging from 5 min to 24 hours following compound administration. LC/MS/MS was used to measure the amount of compound in the plasma after both routes of administration and the plasma exposure was compared between the oral and IV routes (%F). %F is the % of the administered dose that is absorbed after oral administration. […] The in vivo platelet aggregation data that was acquired at similar time points was then compared to the plasma concentration and a calculation of the concentration needed to inhibit platelet aggregation was made.
The bioavailability of certain compounds of the present invention was determined following oral administration in rats, according to the protocol of Example 5. The compounds were administered as either a suspension of the free acid forms, a suspension of the sodium salt forms, or as a solution of the sodium salt forms.

[2] = Homo sapiens, Platelet, read-out: PLATELET DATA IC50 Washed Platelets, washed human platelets
[3] = administered as solution of the sodium salt form, read-out: % F, salt solution
[4] = administered as suspension of the free acid form, read-out: % F, free acid suspension
[5] = administered as suspension of the sodium salt form, read-out: % F, salt suspension
[6] = read-out: PLATELET DATA IC50 Washed Platelets, washed human platelets

CCCNC(=O)Nc1ncnc2c1ncn2C1OC(COc2ccccc2C(=O)O)C2O[C@H](c3ccc(F)cc3)OC21 (some centres unmarked) [Compound 15]
IC50 (washed human platelets; [2]): 190 nM
bioavailability [1, 3]: ~53%
bioavailability [1, 4]: 14.3 to 14.6%
bioavailability [1, 5]: 29.5 to 29.9%
bioavailability following oral administration (in words) [1]: high bioavailability
% F, salt solution ([1]; administered as solution of the sodium salt form): 52.5-53.4%

CCCCNC(=O)Nc1ncnc2c1ncn2C1OC(COc2c(OC)cccc2C(=O)O)C2O[C@H](c3ccc(F)cc3)OC21 (some centres unmarked) [Compound 19]
IC50 (washed human platelets; [2]): < 100 nM
IC50 (washed human platelets; [6]): 62 nM

COc1cccc(C(=O)O)c1OCC1OC(n2cnc3c(NC(=O)NC4CC4)ncnc32)C2O[C@@H](c3ccc(F)cc3)OC12 (some centres unmarked) [Compound 33]
% inhibition of ADP-induced platelet aggregation at fixed concentration (washed human platelets; washed human platelets): 56% inh. @ 0.3 μM

CCNC(=O)Nc1ncnc2c1ncn2C1OC(COc2cc(OC)ccc2C(=O)O)C2OC(c3ccc(F)cc3)OC21 (centres unmarked) [Compound 14, 2-[6-[6-(3-Ethyl-ureido)-purin-9-yl]-2-(4-fluoro-phenyl)-tetrahydro-furo[3,4-d][1,3]dioxol-4-ylmethoxyl]-4-methoxy-benzoic acid]
IC50 (washed human platelets; [2]): < 100 nM
IC50 (washed human platelets; [6]): 96 nM
bioavailability [1, 3]: ~44%
bioavailability [1, 5]: 21.5 to 22.1%
bioavailability following oral administration (in words) [1]: high bioavailability

CCNC(=O)Nc1ncnc2c1ncn2C1OC(COc2ccc(C)cc2C(=O)O)C2O[C@H](/C=C/c3ccccc3)OC21 (some centres unmarked) [Compound 5]
IC50 (washed human platelets; [2]): 536 nM

CCNC(=O)Nc1ncnc2c1ncn2C1OC(COc2ccccc2C(=O)O)C2O[C@H](/C=C/c3ccccc3)OC21 (some centres unmarked) [Compound 1]
IC50 (washed human platelets; [2]): 319 nM
bioavailability [1, 3]: ~39%
bioavailability [1, 4]: 8 to 13%
bioavailability following oral administration (in words) [1]: high bioavailability
% F, free acid suspension ([1]; administered as suspension of the free acid form): 8.7-13.1%

CCNC(=O)Nc1ncnc2c1ncn2C1OC(COc2ccc(OC)cc2C(=O)O)C2O[C@H](/C=C/c3ccccc3)OC21 (some centres unmarked) [Compound 9]
IC50 (washed human platelets; [2]): 744 nM

CCNC(=O)Nc1ncnc2c1ncn2C1OC(COc2cccc(F)c2C(=O)O)C2OC(/C=C/c3ccccc3)OC21 (centres unmarked) [Compound 8]
IC50 (washed human platelets; [2]): 134 nM

CCNC(=O)Nc1ncnc2c1ncn2C1OC(COc2ccccc2C(=O)O)C2O[C@H](c3ccc(F)cc3)OC21 (some centres unmarked) [Compound 12]
IC50 (washed human platelets; [2]): 200 nM

CCNC(=O)Nc1ncnc2c1ncn2C1OC(COc2cc(F)ccc2C(=O)O)C2O[C@H](/C=C/c3ccccc3)OC21 (some centres unmarked) [Compound 7]
IC50 (washed human platelets; [2]): 385 nM

CCNC(=O)Nc1ncnc2c1ncn2C1OC(COc2c(F)cccc2C(=O)O)C2O[C@H](c3ccc(F)cc3)OC21 (some centres unmarked) [Compound 25]
% inhibition of ADP-induced platelet aggregation at fixed concentration (washed human platelets; washed human platelets): 46% inh. @ 0.3 μM

CCNC(=O)Nc1ncnc2c1ncn2C1OC(COc2ccc(F)cc2C(=O)O)C2O[C@H](c3ccc(F)cc3)OC21 (some centres unmarked) [Compound 13]
IC50 (washed human platelets; [2]): < 100 nM
IC50 (washed human platelets; [6]): 89 nM

CCNC(=O)Nc1ncnc2c1ncn2C1OC(COc2cc(OC)ccc2C(=O)O)C2O[C@H](/C=C/c3ccccc3)OC21 (some centres unmarked) [Compound 3]
IC50 (washed human platelets; [2]): 404 nM

COc1ccc(C(=O)O)c(OCC2OC(n3cnc4c(NC(=O)NCC5CC5)ncnc43)C3O[C@@H](c4ccc(F)cc4)OC23)c1 (some centres unmarked) [Compound 23]
IC50 (washed human platelets; [2]): < 100 nM
IC50 (washed human platelets; [6]): 99 nM

CCNC(=O)Nc1ncnc2c1ncn2C1OC(COc2ccccc2CC(=O)O)C2O[C@H](/C=C/c3ccccc3)OC21 (some centres unmarked) [Compound 6]
IC50 (washed human platelets; [2]): 297 nM

CCNC(=O)Nc1ncnc2c1ncn2C1OC(COc2c(OC)cccc2C(=O)O)C2O[C@H](/C=C/c3ccccc3)OC21 (some centres unmarked) [Compound 2]
IC50 (washed human platelets; [2]): 279 nM

CCCNC(=O)Nc1ncnc2c1ncn2C1OC(COc2cc(OC)ccc2C(=O)O)C2O[C@H](c3ccc(F)cc3)OC21 (some centres unmarked) [Compound 20]
IC50 (washed human platelets; [2]): < 100 nM
IC50 (washed human platelets; [6]): 92 nM

COc1ccc(C(=O)O)c(OCC2OC(n3cnc4c(NC(=O)NC5CC5)ncnc43)C3O[C@@H](c4ccc(F)cc4)OC23)c1 (some centres unmarked) [Compound 22]
IC50 (washed human platelets; [2]): < 100 nM
IC50 (washed human platelets; [6]): 99 nM

CCNC(=O)Nc1ncnc2c1ncn2C1OC(COc2ccc(OC)cc2C(=O)O)C2O[C@H](c3ccc(F)cc3)OC21 (some centres unmarked) [Compound 34]
% inhibition of ADP-induced platelet aggregation at fixed concentration (washed human platelets; washed human platelets): 52% inh. @ 0.3 μM

O=C(Nc1ncnc2c1ncn2C1OC(COc2cc(F)ccc2C(=O)O)C2O[C@H](c3ccc(F)cc3)OC21)NC1CC1 (some centres unmarked) [Compound 35]
% inhibition of ADP-induced platelet aggregation at fixed concentration (washed human platelets; washed human platelets): 61% inh. @ 0.3 μM

CCCNC(=O)Nc1ncnc2c1ncn2C1OC(COc2cc(F)ccc2C(=O)O)C2O[C@H](c3ccc(F)cc3)OC21 (some centres unmarked) [Compound 28]
% inhibition of ADP-induced platelet aggregation at fixed concentration (washed human platelets; washed human platelets): 64% inh. @ 0.3 μM

CCNC(=O)Nc1ncnc2c1ncn2C1OC(COc2ccc(F)cc2C(=O)O)C2O[C@H](/C=C/c3ccccc3)OC21 (some centres unmarked) [Compound 4]
IC50 (washed human platelets; [2]): 105 nM

CCCCNC(=O)Nc1ncnc2c1ncn2C1OC(COc2cc(OC)ccc2C(=O)O)C2O[C@H](c3ccc(F)cc3)OC21 (some centres unmarked) [Compound 21]
IC50 (washed human platelets; [2]): < 100 nM
IC50 (washed human platelets; [6]): 87 nM

CCCNC(=O)Nc1ncnc2c1ncn2C1OC(COc2cccc(F)c2C(=O)O)C2O[C@H](c3ccc(F)cc3)OC21 (some centres unmarked) [Compound 30]
% inhibition of ADP-induced platelet aggregation at fixed concentration (washed human platelets; washed human platelets): 56% inh. @ 0.3 μM

CCNC(=O)Nc1ncnc2c1ncn2C1OC(COc2ccccc2CC(=O)O)C2OC(c3ccc(F)cc3)OC21 (centres unmarked) [Compound 11]
IC50 (washed human platelets; [2]): 570 nM
